Test results taken from the NIST ThermoML archive (doi:10.1016/j.fluid.2009.02.007).

Assay: osmotic coefficient (dimensionless); mn = molality of the nth substance listed, in mol/kg
Conditions: 101 kPa, Liquid, Vapor pressure osmometry

CCCCn1cc[n+](C)c1.COS(=O)(=O)[O-] [1-butyl-3-methylimidazolium methyl sulfate] + O
osmotic coefficient
Conditions | 298.15 K | 308.15 K | 318.15 K | 328.15 K
m1 = 0.0132 | 0.923 | 0.937 | 0.968 | 0.987
m1 = 0.0225 | 0.895 | 0.921 | 0.958 | 0.977
m1 = 0.0328 | 0.884 | 0.897 | 0.94 | 0.966
m1 = 0.0434 | 0.863 | 0.885 | 0.896 | 0.959
m1 = 0.0634 | 0.837 | 0.872 | 0.882 | 0.896
m1 = 0.078 | 0.821 | 0.836 | 0.877 | 0.887
m1 = 0.1205 | 0.809 | 0.813 | 0.839 | 0.874
m1 = 0.157 | 0.791 | 0.809 | 0.839 | 0.858
m1 = 0.1944 | 0.78 | 0.802 | 0.814 | 0.857
m1 = 0.2801 | 0.767 | 0.779 | 0.802 | 0.84
m1 = 0.3552 | 0.741 | 0.758 | 0.775 | 0.81
m1 = 0.4687 | 0.721 | 0.749 | 0.762 | 0.8
m1 = 0.7057 | 0.71 | 0.74 | 0.756 | 0.786
m1 = 0.9552 | 0.698 | 0.716 | 0.732 | 0.76
m1 = 1.44 | 0.692 | 0.708 | 0.73 | 0.752
m1 = 2.177 | 0.693 | 0.7 | 0.726 | 0.743

CCCCn1cc[n+](C)c1.F[B-](F)(F)F [1-butyl-3-methylimidazolium tetrafluoroborate] + O
osmotic coefficient
Conditions | 298.15 K | 308.15 K | 318.15 K | 328.15 K
m1 = 0.012 | 1.023 | 1.009 | 1.006 | 0.994
m1 = 0.0223 | 0.994 | 0.974 | 0.986 | 0.978
m1 = 0.0369 | 0.987 | 0.959 | 0.955 | 0.965
m1 = 0.045 | 0.956 | 0.956 | 0.96 | 0.959
m1 = 0.0652 | 0.952 | 0.926 | 0.937 | 0.92
m1 = 0.0855 | 0.862 | 0.879 | 0.892 | 0.9
m1 = 0.1058 | 0.854 | 0.872 | 0.887 | 0.883
m1 = 0.1629 | 0.825 | 0.823 | 0.826 | 0.839
m1 = 0.2108 | 0.804 | 0.787 | 0.802 | 0.797
m1 = 0.2695 | 0.749 | 0.766 | 0.766 | 0.772
m1 = 0.3284 | 0.699 | 0.708 | 0.748 | 0.761
m1 = 0.4307 | 0.677 | 0.685 | 0.693 | 0.726
m1 = 0.533 | 0.648 | 0.666 | 0.673 | 0.685
m1 = 0.6375 | 0.619 | 0.622 | 0.634 | 0.647
m1 = 0.7233 | 0.575 | 0.587 | 0.61 | 0.632
m1 = 0.9322 | 0.523 | 0.545 | 0.564 | 0.589
m1 = 1.292 | 0.462 | 0.495 | 0.508 | 0.517
m1 = 2.066 | 0.392 | 0.396 | 0.412 | 0.415

CCOS(=O)(=O)[O-].CCn1cc[n+](C)c1 [1-ethyl-3-methylimidazolium ethyl sulfate] + O
osmotic coefficient
Conditions | 298.15 K | 308.15 K | 318.15 K | 328.15 K
m1 = 0.0086 | 0.973 | 0.981 | 1.019 | 1.018
m1 = 0.0185 | 0.957 | 0.943 | 0.972 | 0.975
m1 = 0.0284 | 0.937 | 0.921 | 0.934 | 0.955
m1 = 0.0376 | 0.921 | 0.917 | 0.93 | 0.936
m1 = 0.057 | 0.871 | 0.862 | 0.868 | 0.886
m1 = 0.0749 | 0.852 | 0.862 | 0.859 | 0.858
m1 = 0.0938 | 0.83 | 0.838 | 0.845 | 0.85
m1 = 0.1269 | 0.815 | 0.817 | 0.831 | 0.842
m1 = 0.1704 | 0.782 | 0.797 | 0.813 | 0.815
m1 = 0.2087 | 0.774 | 0.779 | 0.797 | 0.815
m1 = 0.2648 | 0.754 | 0.764 | 0.797 | 0.8
m1 = 0.3276 | 0.751 | 0.766 | 0.793 | 0.796
m1 = 0.4235 | 0.736 | 0.755 | 0.776 | 0.787
m1 = 0.5106 | 0.724 | 0.745 | 0.772 | 0.781
m1 = 0.6979 | 0.712 | 0.727 | 0.742 | 0.755
m1 = 0.8919 | 0.706 | 0.721 | 0.73 | 0.747
m1 = 1.12 | 0.697 | 0.711 | 0.717 | 0.729
m1 = 1.606 | 0.696 | 0.707 | 0.715 | 0.719
m1 = 1.889 | 0.694 | 0.707 | 0.717 | 0.726
m1 = 2.763 | 0.733 | 0.747 | 0.759 | 0.766
